Tests used:
MIP-2 = test: LPS-stimulated J774 macrophages: MIP-2 production; type: cell-based
Excerpt: In in vitro studies, J774 macrophages were exposed to bacterial lipopolysaccharide (LPS), to induce pro-inflammatory mediator production and cytotoxicity. […] This assay (the LPS-stimulated macrophage) represents an in vitro model of an inflammatory situation. Agents that block inflammatory mediator production in this assay are expected to have anti-inflammatory or immunosuppressive effects in inflammatory or immune diseases.
The half-maximal inhibitory effect (in μM) of various PJ compounds was assessed under a variety of conditions in immunostimulated J774 macrophages and in peroxynitrite-stimulated thymocytes. Macrophages or thymocytes were first treated with a chosen PJ compound for 30 min at a concentration ranging from 0.1 to 30 μM. The cells were then immunostimulated with LPS (10 μg/ml) or treated with peroxynitrite (30 μM). MIP production in the macrophages was measured at 3 h, TNF and nitric oxide were measured at 24 h, cell viability in the macrophages were measured at 24 h. PARS activation and cell death in thymocytes were measured at 6 h. Measurements of mediator production, PARS activation and cell death were essentially as described in Németh, et al., Eur J Pharmacol 339:215-221, 1997 and Virág and Szabó, Br J Pharmacol, 126: 769-777, 1999. Results in Table 2 are shown as EC50 values (half maximal inhibition of mediator production or restoration of cell viability; in μM): [mean±SEM of n=3-6 determinations].

[1] = test system: streptozotocin diabetic mice; test: Streptozotocin induced diabetes: vascular function, glucose, insulin, immunostaining; type: in vivo, mouse
Description: Male Balb/c mice were treated intraperitoneally (i.p.) with streptozotocin (240 mg/kg dissolved in citrate buffer) or vehicle (citrate buffer). Blood glucose was then monitored weekly over 8 weeks using a one-touch blood glucose meter (Lifescan). Hyperglycemia was defined as non-fasting blood glucose level higher than 200 mg/dL. Total glycated hemoglobin (GHb) content of blood samples was measured using a commercially available kit (Sigma Diagnostics) according to manufacturers instructions. […] The optical density of the two fractions was measured by spectrophotometry at 415 nm and the per cent glycated hemoglobin content was calculated as follows: GHb (%)=[…]/(E+[…]). Samples of pancreas were removed on week 8 and weighed before being placed into 6 ml of acid ethanol (23:7:0.45, ethanol:dH2O:HCl) and homogenized. The pancreas was incubated for 72 h at 4° C. before being centrifuged. The insulin content of the supernatant was then determined using a commercially available ELISA kit (Alpco). […] At 8 weeks, blood was taken for measurement of glycosylated hemoglobin levels, pancreata taken for measurements of pancreatic insulin content, and thoracic aortae taken for determination of endothelium-dependent relaxant reactivity. There was no difference in the degree of hyperglycemia and glycosylated hemoglobin, and in the degree of pancreatic insulin loss between vehicle and PJ34 treated diabetic animals. […] Sections were treated with 0.3% hydrogen peroxide for 15 min to block endogenous peroxidase activity and then rinsed briefly in PBS. Non-specific binding was blocked by incubating the slides for 1 h in PBS containing 2% horse serum. To detect poly(ADP-ribose), a routine histochemical procedure was applied, as previously described (Scott et al., Ann. Neurol. 45: 120-124, 1999) with minor modifications, as follows: Mouse monoclonal anti-poly(ADP-ribose) antibody (Alexis, San Diego, Calif.) and isotype-matched control antibody were applied in a dilution of 1:100 for 2 h at room temperature. Following extensive washing (5×5 min) with PBS, immunoreactivity was detected with a biotinylated goat anti-rabbit secondary antibody and the avidin-biotin-peroxidase complex (ABC), both supplied in the Vector Elite kit (Vector Laboratories, Burlingame, Calif.). Color was developed using Ni-DAB substrate (95 mg diaminobenzidine, 1.6 g NaCl, 2 g nickel sulfate in 200 ml 0.1 M acetate buffer). Sections were then counterstained with nuclear fast red, dehydrated and mounted in Permount. Photomicrographs were taken with a Zeiss Axiolab microscope equipped with a Fuji HC-300C digital camera. Detection of nitrotyrosine in aorta rings was carried out as described above for poly(ADP-ribose) staining except that rabbit anti-nitrotyrosine polyclonal antibody was used as the primary antibody. […] Cells were rehydrated in PBS, blocked in 2% goat serum (1 h, room temperature) and incubated in anti-nitrotyrosine (1:100 dilution) for 2 h. Subsequent steps of the staining procedure were identical to the tissue staining. Color was developed with Vector Red substrate, and slides were mounted in glycerol.

[2] = 10 mg/kg per os once a day from week 1, at 8 weeks

CN(C)CC(=O)Nc1ccc2[nH]c(=O)c3ccccc3c2c1 [PJ34, N-(6-oxo-5,6-dihydro-phenanthridin-2-yl)-N,N-dimethylacetamide]
production of the chemokine MIP-2 (in words) (MIP-2; J774 macrophages exposed to LPS): inhibited
EC50 (MIP-2; Mus musculus, J774, LPS 10 μg/ml, 30 min pretreatment 0.1 to 30 μM, measured at 3 h, mean±SEM n=3-6, read-out: Inhibition of MIP-2 (J774)): 7.2 ± 0.88 µM
degree of hyperglycemia (blood glucose) vs vehicle ([1]; 10 mg/kg per os once a day from week 1, 0-8 weeks): no difference
degree of pancreatic insulin loss vs vehicle [1, 2]: no difference
glycosylated hemoglobin vs vehicle [1, 2]: no difference
PARS activation (poly(ADP-ribose) staining) in diabetic endothelium ([1]; 8 weeks): abolished
tyrosine nitration (nitrotyrosine immunostaining) in diabetic rings ([1]; 8 weeks): not affected
vascular reactivity of normal (non-diabetic) mice ([1]; chronic treatment 8 weeks, same regimen, not shown): did not affect
acetylcholine induced endothelium-dependent relaxant ability of thoracic aortic rings ([1]; diabetic animals at 8 weeks, 10 mg/kg per os daily, P<0.01 vs vehicle): normalized
